Several values for one entry are separate records, joined by “and”; a condition that tells them apart may be missing. Identical values can stand only once.
Assays:
[1] = tested on: Solid Ehrlich carcinoma (SEC); assay: In vivo antitumor activity in SEC-bearing mice; design: species or system Swiss albino mice; conditions: IP, 5 mg/kg; for solid tumor mass: SEC control 398.1 mg; for tumor proliferation inhibition (TIR%): TIR% = C − T/C × 100
Experimental: The Suez Canal University Research Ethics Committee gave the experimental procedure their seal of approval (approval number REC219/2023, Faculty of Science, Suez Canal University). The full, detailed methodology is supported in the Supplementary Materials.
Animals and tumor cell line
Adult female Swiss albino mice purchased from Theodor Bilharzia Research Institute, Giza, Egypt, with an average body weight of (18-23) g was used. Mice were housed under constant conditions of 12 h light/dark cycle in a […], with free access to standard laboratory mice food and water .All procedures related to care and maintenance of the animals were performed according to the international guiding principles for animal research and approved by Faculty of Science, Suez Canal University bioethics and animal ethics committee (Approval […]
Solid Ehrlich carcinoma (SEC) were got from the National Cancer Institute (Cairo University, Egypt). The tumor cell line was proliferated in mice through serial intraperitoneal (I.P.) transplantation of a volume of 0.2 mL physiological saline contains 1 × 10^6 viable cells for 24 h. SEC cells were collected 7 days after I.P. implantation. The harvested cells were diluted with saline to obtain a concentration of 5 × 10^6 viable SEC cells/mL. A volume of 0.2 mL saline contains 1 × 10^6 SEC cells that were I.P. implanted into each normal mouse. SEC cells (1 × 10^6 tumor cells/mouse) were implanted subcutaneously into the right thigh of the hind limb.
The experimental animals were randomly divided into four groups. Group 1 served as the normal saline control (5 mL/kg B.Wt., I.P.). Group 2 served as the SEC control (1 × 10^6 cells/mouse). Group 3 served as the compound-treated group (5 mg/kg B.Wt., I.P.).
Group 4 received the standard anticancer drug of Doxorubicin (DOX) (5 mg/kg BW, I.P.) and is considered as a reference control. Body weight and survival were recorded daily until the 24th day in both treated and control groups. At the end of experiment, the blood of each group was collected under light anesthesia for estimation of hematological and biochemical assays. The anesthetized animals were then sacrificed for evaluation of the antitumor activity and histopathological examination.
It includes tumor volume, weight, and tumor inhibition ration (TIR%). Time interval measurements of tumor volume using digital Vernier caliper (Tricle Brand, Shanghai, […]
China). Measure tumor length and width using clipper and then calculate tumor volume using formulations V = (L x W x W)/2, where V is tumor volume, W is tumor width, L is […]
tumor length. […]

[2] = tested on: MCF-7 breast cancer cells; assay: MTT cytotoxicity assay; assay type: cell-based; conditions: for IC50: MCF-7 cells, MTT, 48 h, mean ± SD of three independent values; for fold higher potency than reference drug staurosporine against MCF-7: versus staurosporine
Experimental: The National Research Institute in Egypt donated the breast cancer (MCF-7) cells, which were collected and cultured in RPMI-1640 medium L-glutamine (Lonza Verviers SPRL, Verviers, Belgium, cat#12-604F). The 10% fetal bovine serum (FBS; Sigma-Aldrich, St. Louis, MO, USA) and 1% penicillin-streptomycin (Lonza, Belgium) were given to each of the two cell lines.
All cells were cultured, following routine tissue culture work, in 5% CO2 humidified at 37 °C. Cells were exposed to compounds at concentrations of 0.01, 0.1, 1, 10, and 100 μM on the second day of culturing. After 48 h, cell viability was evaluated using the MTT solution (Promega, Madison, WI, USA). MTT dye (20 μL) was placed into each well, and the plate was then incubated for three hours. Absorbance was subsequently measured at 570 nm using the ELISA microplate reader (BIO-RAD, model iMark, Tokyo, Japan), and the percentage of cell viability was calculated, compared to control, as (mean absorbance of tested compound)/(mean absorbance in control) × 100. Finally, IC50 values were found using the nonlinear dose–response sigmoidal curve in GraphPad Prism 7 [39].

PI3K-δ = target: T1, PI3K-δ (Homo sapiens, UniProt O00329); assay: Kinase inhibitory assay (ELISA kit); assay type: biochemical; conditions: average of three independent replicates; read-out: IC50 ± SD PI3K-δ
T1 construct: purchased Bioscience, USA #40628
T1 sequence (O00329 whole entry): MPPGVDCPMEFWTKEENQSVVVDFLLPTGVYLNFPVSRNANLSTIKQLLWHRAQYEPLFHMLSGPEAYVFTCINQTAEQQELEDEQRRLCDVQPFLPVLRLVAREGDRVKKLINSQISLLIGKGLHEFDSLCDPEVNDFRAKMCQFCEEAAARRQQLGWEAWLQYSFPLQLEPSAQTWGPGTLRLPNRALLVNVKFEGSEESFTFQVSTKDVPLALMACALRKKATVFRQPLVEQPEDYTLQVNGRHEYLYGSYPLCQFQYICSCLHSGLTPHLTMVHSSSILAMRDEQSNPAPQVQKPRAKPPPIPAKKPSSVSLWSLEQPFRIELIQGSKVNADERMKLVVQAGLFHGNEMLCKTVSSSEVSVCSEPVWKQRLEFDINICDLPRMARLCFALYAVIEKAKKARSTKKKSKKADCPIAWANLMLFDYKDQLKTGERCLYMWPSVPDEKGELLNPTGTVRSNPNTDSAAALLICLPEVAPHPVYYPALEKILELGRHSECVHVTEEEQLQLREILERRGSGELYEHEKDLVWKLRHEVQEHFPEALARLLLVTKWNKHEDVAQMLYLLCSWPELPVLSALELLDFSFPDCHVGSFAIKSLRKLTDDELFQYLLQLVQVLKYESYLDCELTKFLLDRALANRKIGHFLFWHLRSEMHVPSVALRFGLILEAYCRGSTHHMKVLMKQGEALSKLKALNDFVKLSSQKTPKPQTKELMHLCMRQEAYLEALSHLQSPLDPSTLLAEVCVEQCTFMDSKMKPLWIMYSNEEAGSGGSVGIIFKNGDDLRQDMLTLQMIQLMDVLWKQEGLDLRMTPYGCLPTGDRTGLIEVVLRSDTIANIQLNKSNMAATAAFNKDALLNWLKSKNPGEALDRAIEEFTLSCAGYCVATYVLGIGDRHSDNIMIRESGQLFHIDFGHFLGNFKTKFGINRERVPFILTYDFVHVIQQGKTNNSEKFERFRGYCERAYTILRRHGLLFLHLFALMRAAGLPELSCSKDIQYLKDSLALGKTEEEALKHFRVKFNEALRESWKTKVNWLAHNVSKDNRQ
T1 sequence (P27986 whole entry partner): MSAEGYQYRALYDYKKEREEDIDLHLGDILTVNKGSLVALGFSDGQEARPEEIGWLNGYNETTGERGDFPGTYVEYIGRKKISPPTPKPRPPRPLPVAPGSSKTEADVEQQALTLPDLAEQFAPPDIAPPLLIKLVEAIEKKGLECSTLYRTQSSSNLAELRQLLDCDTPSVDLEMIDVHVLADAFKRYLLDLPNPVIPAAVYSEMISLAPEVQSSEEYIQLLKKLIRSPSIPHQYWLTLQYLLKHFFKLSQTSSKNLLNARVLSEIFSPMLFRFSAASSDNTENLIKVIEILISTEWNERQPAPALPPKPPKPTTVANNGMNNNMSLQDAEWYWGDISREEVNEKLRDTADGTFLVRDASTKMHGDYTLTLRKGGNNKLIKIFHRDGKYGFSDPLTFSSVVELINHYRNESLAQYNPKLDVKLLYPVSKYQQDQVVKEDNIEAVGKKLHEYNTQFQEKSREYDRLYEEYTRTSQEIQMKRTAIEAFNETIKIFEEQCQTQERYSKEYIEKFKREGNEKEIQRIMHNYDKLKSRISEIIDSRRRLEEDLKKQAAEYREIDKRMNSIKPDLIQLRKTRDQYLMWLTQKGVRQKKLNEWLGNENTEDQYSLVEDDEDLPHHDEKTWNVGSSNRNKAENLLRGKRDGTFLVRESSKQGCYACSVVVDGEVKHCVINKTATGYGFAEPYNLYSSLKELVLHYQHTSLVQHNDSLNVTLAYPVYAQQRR
Experimental: EGFR (catalog #40321), CDK2 (catalog #79599), AKT (catalog #78038), PI3K-α (catalog #40639), β (catalog #79802), and δ (catalog #40628) kinase inhibitions were conducted using an ELISA kit in accordance with the manufacturer instructions from Bioscience, USA. To assess the inhibitory potency of compound 5 against the kinase activity, kinase inhibitory tests were carried out. The following calculation was used to compute the proportion that chemicals inhibited autophosphorylation: […]. Using the GraphPad prism7 program, the IC50 was calculated using the curves of percentage inhibition of five concentrations of each chemical.

MCF-7 cells [3] = assay: Wound-healing assay (scratch assay); assay type: cell-based; conditions: MCF-7, treated at IC50 of compound, 48 h, mean ± SD
Experimental: The wound-healing test was mentioned in previous research. Six-well plates containing starvation media were filled with four […] MCF-7 cells per well, and the plates were subsequently incubated at 37 °C for the whole night. A sterile 1 mL pipette tip was used to generate a scratch of the cell monolayer once it was established the following day that the cells had adhered to the well and that cell confluence had reached 90%. Starvation media was used to clean the cells before they were removed from the plates. […] After 48 h, the medium was immediately changed to PBS, the wound gap was examined, and cells—both control and treated—were captured on camera with a digital camera attached to an Olympus microscope. The region where the wound closes was measured.

MCF-7 cells [4] = assay: DNA content flow cytometry (cell cycle analysis); assay type: cell-based; conditions: MCF-7, treated at IC50, 48 h
Experimental: (§1) Annexin V/PI staining and cell cycle analysis […] MCF-7 cells were added to 6-well culture plates, which were then placed in the incubator for the night. […] Following that, PBS was rinsed with ice-cold water before cells and media supernatants were gathered. The cells were then treated with “Annexin V-FITC solution (1:100) and propidium iodide (PI)” at a concentration of 10 µg/mL for 30 min in the dark after being suspended in […] of annexin-binding buffer solution, which was composed of 25 mM CaCl2, 1.4 M NaCl, and 0.1 M Hepes/NaOH, pH 7.4. Then, labeled cells were collected using the Cytoflex FACS system. The data were assessed using the cytExpert program.

MCF-7 cells [5] = assay: Annexin V/PI staining flow cytometry (apoptosis/necrosis); assay type: cell-based; conditions: MCF-7, treated at IC50, 48 h
Experimental: as §1

EGFR = target: T2, EGFR (Homo sapiens, UniProt P00533); assay: Kinase inhibitory assay (ELISA kit); assay type: biochemical; conditions: average of three independent replicates; read-out: IC50 ± SD EGFR
T2 construct: purchased Bioscience, USA #40321
T2 sequence (P00533 25-1210): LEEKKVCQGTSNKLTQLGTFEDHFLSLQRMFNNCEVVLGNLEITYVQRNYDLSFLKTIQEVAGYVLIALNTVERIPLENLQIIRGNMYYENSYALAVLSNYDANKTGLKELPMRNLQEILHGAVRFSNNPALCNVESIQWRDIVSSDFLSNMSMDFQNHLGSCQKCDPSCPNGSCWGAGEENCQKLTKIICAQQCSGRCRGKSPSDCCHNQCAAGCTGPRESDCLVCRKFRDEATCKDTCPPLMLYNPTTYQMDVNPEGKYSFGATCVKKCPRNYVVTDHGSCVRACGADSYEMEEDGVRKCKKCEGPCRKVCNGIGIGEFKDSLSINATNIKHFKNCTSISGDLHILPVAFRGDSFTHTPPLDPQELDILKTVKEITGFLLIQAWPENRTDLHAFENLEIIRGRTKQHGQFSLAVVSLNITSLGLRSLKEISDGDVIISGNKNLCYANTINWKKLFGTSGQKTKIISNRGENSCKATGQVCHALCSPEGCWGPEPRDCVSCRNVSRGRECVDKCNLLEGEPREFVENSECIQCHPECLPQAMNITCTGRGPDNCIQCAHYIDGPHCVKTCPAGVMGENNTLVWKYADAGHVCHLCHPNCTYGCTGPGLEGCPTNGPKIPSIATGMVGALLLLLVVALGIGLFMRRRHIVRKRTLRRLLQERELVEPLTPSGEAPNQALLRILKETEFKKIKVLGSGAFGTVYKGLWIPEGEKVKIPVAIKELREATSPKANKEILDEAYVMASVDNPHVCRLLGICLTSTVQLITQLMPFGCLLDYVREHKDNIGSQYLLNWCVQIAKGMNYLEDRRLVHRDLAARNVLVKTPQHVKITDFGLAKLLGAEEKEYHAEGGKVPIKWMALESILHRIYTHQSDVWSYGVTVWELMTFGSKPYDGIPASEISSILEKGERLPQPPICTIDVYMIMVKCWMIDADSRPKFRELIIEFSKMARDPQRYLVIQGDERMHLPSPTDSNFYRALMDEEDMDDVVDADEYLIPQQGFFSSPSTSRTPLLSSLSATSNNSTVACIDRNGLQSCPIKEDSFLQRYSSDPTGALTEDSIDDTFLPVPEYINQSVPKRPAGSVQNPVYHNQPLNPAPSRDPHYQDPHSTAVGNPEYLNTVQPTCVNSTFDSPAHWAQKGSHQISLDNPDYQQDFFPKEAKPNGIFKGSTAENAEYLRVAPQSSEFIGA
Experimental: (§2) The following calculation was used to compute the proportion that chemicals inhibited autophosphorylation: […]. Using the GraphPad prism7 program, the IC50 was calculated using the curves of percentage inhibition of five concentrations of each chemical.

PI3K-β = target: T3, PI3K-β (Homo sapiens, UniProt P42338); assay: Kinase inhibitory assay (ELISA kit); assay type: biochemical; conditions: average of three independent replicates; read-out: IC50 ± SD PI3K-β
T3 construct: purchased Bioscience, USA #79802
Experimental: as §2

AKT-1 = target: T4, AKT-1 (Homo sapiens, UniProt P31749); assay: Kinase inhibitory assay (ELISA kit); assay type: biochemical; conditions: average of three independent replicates; read-out: IC50 ± SD AKT-1
T4 construct: purchased Bioscience, USA #78038
T4 sequence (P31749 whole entry): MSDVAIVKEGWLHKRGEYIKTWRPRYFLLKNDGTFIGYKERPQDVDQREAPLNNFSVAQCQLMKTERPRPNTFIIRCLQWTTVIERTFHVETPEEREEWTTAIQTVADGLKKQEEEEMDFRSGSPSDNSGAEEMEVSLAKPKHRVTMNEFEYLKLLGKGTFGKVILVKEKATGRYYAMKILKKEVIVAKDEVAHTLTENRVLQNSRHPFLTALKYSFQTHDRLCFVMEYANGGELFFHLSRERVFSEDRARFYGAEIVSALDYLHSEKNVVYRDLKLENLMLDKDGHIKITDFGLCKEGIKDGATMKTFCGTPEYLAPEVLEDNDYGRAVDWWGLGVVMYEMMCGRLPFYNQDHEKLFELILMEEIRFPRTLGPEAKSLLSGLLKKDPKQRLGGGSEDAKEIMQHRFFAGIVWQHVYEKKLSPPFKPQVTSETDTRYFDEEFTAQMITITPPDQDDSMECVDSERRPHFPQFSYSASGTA
Experimental: as §2

PI3K-α = target: T5, PI3K-α (Homo sapiens, UniProt P42336); assay: Kinase inhibitory assay (ELISA kit); assay type: biochemical
T5 construct: purchased Bioscience, USA #40639
T5 sequence (P42336 whole entry): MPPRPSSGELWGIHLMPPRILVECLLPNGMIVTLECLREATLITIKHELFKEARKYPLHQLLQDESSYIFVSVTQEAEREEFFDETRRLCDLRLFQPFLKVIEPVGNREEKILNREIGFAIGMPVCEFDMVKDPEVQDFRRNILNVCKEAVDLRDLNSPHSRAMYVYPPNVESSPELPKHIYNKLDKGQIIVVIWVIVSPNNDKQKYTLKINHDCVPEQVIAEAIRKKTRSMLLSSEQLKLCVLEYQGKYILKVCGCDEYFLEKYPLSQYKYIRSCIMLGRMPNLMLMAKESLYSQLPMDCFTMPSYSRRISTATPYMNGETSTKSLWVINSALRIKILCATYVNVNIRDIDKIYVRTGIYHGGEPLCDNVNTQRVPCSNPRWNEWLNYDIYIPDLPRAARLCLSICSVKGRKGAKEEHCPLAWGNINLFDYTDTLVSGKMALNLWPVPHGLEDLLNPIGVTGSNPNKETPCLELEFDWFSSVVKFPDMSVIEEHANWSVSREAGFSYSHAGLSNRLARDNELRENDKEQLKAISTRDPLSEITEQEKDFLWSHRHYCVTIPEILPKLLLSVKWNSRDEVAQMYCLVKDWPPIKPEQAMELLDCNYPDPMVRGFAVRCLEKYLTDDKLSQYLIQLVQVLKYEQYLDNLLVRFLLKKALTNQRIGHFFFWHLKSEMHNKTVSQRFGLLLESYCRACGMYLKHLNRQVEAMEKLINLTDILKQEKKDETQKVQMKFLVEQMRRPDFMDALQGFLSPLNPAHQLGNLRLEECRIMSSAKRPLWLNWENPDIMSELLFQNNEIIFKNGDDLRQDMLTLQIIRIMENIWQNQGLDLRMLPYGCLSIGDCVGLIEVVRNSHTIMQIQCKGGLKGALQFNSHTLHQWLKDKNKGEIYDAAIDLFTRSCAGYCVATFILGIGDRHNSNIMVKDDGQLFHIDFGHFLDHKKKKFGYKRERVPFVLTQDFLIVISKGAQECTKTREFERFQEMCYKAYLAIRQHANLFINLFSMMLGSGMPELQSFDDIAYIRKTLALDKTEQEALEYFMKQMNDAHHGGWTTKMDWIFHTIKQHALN
T5 sequence (P27986 whole entry partner): as the sequence (P27986 whole entry partner) above
Experimental: as §2

CDK2 = target: T6, CDK2 (Homo sapiens, UniProt P24941); assay: Kinase inhibitory assay (ELISA kit); assay type: biochemical; conditions: average of three independent replicates; read-out: IC50 ± SD CDK2
T6 construct: purchased Bioscience, USA #79599
Experimental: as §2

Row | SMILES | IC50 ([2]; Homo sapiens, MCF7, 48 h) | melting point | %Closure, MCF-7 (wound closure) (MCF-7 cells [3]) | DNA Content %G0-G1 (MCF-7 cells [4]) | DNA Content %G2/M (MCF-7 cells [4]) | DNA Content %Pre-G1 (MCF-7 cells [4]) | DNA Content %S (MCF-7 cells [4]) | Annexin V/PI Staining Early (early apoptosis) (MCF-7 cells [5]) | Annexin V/PI Staining Late (late apoptosis) (MCF-7 cells [5]) | Annexin V/PI Staining Necrosis (MCF-7 cells [5]) | Annexin V/PI Staining Total (total cell death) (MCF-7 cells [5]) | other results
1 | O=c1[nH]cc(F)c(=O)[nH]1 [Compound 5-FU, 5-FU, reference compound] | – | – | – | – | – | – | – | – | – | – | – | tumor volume [1]: 43.7 mm^3; solid tumor mass [1]: 110 mg; tumor proliferation inhibition (TIR%) [1]: 58.8%
2 | CCOC(=O)c1[nH]c2ccccc2c1/C=N/NC(N)=O [Compound 6, Ethyl (E)-3-((2-carbamoylhydrazineylidene)methyl)-1H-indole-2-carboxylate] | 10.2 ± 0.53 µM | 285 to 286 °C | – | – | – | – | – | – | – | – | – | IC50 [2]: 9.42 ± 0.57 µM
3 | O=c1cc(N2CCOCC2)oc2c(-c3ccccc3)cccc12 [LY294002, reference compound] | – | – | – | – | – | – | – | – | – | – | – | IC50 (PI3K-δ): 0.85 ± 0.05 µM
4 | CCOC(=O)c1[nH]c2ccccc2c1/C=N/NC(N)=S [Compound 3, Ethyl (E)-3-((2-carbamothioylhydrazineylidene)methyl)-1H-indole-2-carboxylate] | 9.42 ± 0.57 µM | 229 to 230 °C | – | – | – | – | – | – | – | – | – | IC50 [2]: 10.2 ± 0.53 µM
5 | CCOC(=O)c1[nH]c2ccccc2c1/C=N/Nc1ccc([N+](=O)[O-])cc1 [Compound 10, Ethyl (E)-3-((2-(4-nitrophenyl)hydrazineylidene)methyl)-1H-indole-2-carboxylate] | 25.4 ± 1.54 µM | 270 to 271 °C | – | – | – | – | – | – | – | – | – | –
6 | CCOC(=O)c1[nH]c2ccccc2c1C=O [Compound 1, ethyl 3-formyl-1H-indole-2-carboxylate] | 19.7 ± 2.31 µM | – | – | – | – | – | – | – | – | – | – | –
7 | CCOC(=O)c1[nH]c2ccccc2c1/C=N/n1c(-c2cc3ccccc3[nH]2)n[nH]c1=S [Compound 8, Ethyl (E)-3-(((3-(1H-indol-2-yl)-5-thioxo-1,5-dihydro-4H-1,2,4-triazol-4-yl)imino)methyl)-1H-indole-2-carboxylate] | 4.38 ± 0.23 µM | – | 60.74% and 60.7% | 47.10% | 6.57% | 24.38% | 46.31% | 2.27% | 13.45% | 8.66% | 24.4% and 24.38% | fold higher potency than reference drug staurosporine against MCF-7 [2]: up to 1.9 fold; apoptosis (apoptosis ratio, early + late) (MCF-7 cells [5]): 15.72%
8 | CCOC(=O)c1[nH]c2ccccc2c1/C=N/Nc1ccc([N+](=O)[O-])cc1[N+](=O)[O-] [Compound 12, Ethyl (E)-3-((2-(2,4-dinitrophenyl)hydrazineylidene)methyl)-1H-indole-2-carboxylate] | – | – | 51.85% and 51.8% | 59.33% | 2.55% | 37.05% | 38.10% | 4.59% | 17.44% | 15.02% | 37% and 37.05% | IC50 ([2]; Homo sapiens, MCF7): 7.03 ± 0.37 µM
9 | CCOC(=O)c1[nH]c2ccccc2c1/C=N/N=C/c1c(C(=O)OCC)[nH]c2ccccc12 [Compound 5, Diethyl 3,3’-((1E,1’E)-hydrazine-1,2-diylidenebis(methaneylylidene))bis(1H-indole-2-carboxylate)] | 2.73 ± 0.14 µM | – | 48.88% and 48.8% | 39.07% | 4.74% | 39.26% | 56.2% and 56.19% | 7.11% | 22.24% | 9.91% | 39.26% | fold higher potency than reference drug staurosporine against MCF-7 [2]: 3 fold; IC50 (EGFR): 0.058 ± 0.029 µM; IC50 (PI3K-β): 2.27 ± 0.11 µM; IC50 (AKT-1): 0.602 ± 0.03 µM; IC50 (PI3K-α; average of three independent replicates, read-out: IC50 ± SD PI3K-α): 1.73 ± 0.1 µM; fold higher potency than LY294002 against PI3K-α (PI3K-α; versus LY294002): 4.92 fold; IC50 (CDK2): 0.156 ± 0.01 µM; IC50 (PI3K-δ): 2.68 ± 0.15 µM; tumor volume [1]: 56.4 mm^3; solid tumor mass [1]: 126.5 mg; tumor proliferation inhibition (TIR%) [1]: 46.9%; apoptosis (apoptosis ratio, early + late) (MCF-7 cells [5]): 29.35%

— publication PMC10748079, “Discovery of Potent Indolyl-Hydrazones as Kinase Inhibitors for Breast Cancer: Synthesis, X-ray Single-Crystal Analysis, and In Vitro and In Vivo Anti-Cancer Activity Evaluation” (Pharmaceuticals, 2023)
